Test results as given in patent US20240108745A1, “BIOACTIVE SUBSTANCE CONJUGATE, PREPARATION METHOD THEREFOR AND USE THEREOF” (MEDILINK THERAPEUTICS (SUZHOU) CO., LTD., priority 2021, published 2024).
Where two headings read alike, the source gives them in different places.

Columns and labels:
[1] = human plasma 37° C., ADC 200 μg/mL, A1.9 released from B7H3-ADC-07(DAR8), DXD from B7H3-C1-ADC-21(DAR4)
Procedure: The appropriate concentration of internal standard stock solution was prepared with DMSO, and then acetonitrile or other reagents were used to prepare the appropriate concentration of the internal standard-containing precipitant.
Incubation of sample: the bacteriostatic agent ProClin was added to the plasma of each genera (human, cynomolgus monkey, ICR mouse) and PBS containing 1% BSA, and the final concentration of ProClin was 0.1%, Sterile operations were adopted. 40 μL working solution of test substance and 360 μL of human plasma were mixed to prepare 200 μg/mL of incubation sample. The plate was sealed with a film, and then incubated at 37° C. under 5% CO2 in an incubator, with a shaking speed of 80 times/mm. At 0 h, 4 h, 24 h, 2 d, 3 d, 7 d, 10 d, 14 d, 17 d, 21 d and 28 d, 20 μL of plasma sample was transferred, to which was added 200 μL of precipitant (containing internal standard), and completely mixed to precipitate the proteins.
All samples were subject to protein precipitating, and then centrifuged to collect the supernatant, which was diluted with water, and analyzed by LC-MS/MS.

[2] = Tumor tissue distribution of antibody drug conjugates in HT29 xenografts (A1.9 and ADC in plasma/serum and tumor); assay type: in vivo, BALB/c Nude mice; conditions: BALB/c Nude, mouse, intravenous, 10 mg/kg, HT29 model, read-out: distribution difference of A1.9 in tumors compared with plasma
Procedure: Human colon cancer HT29 cells were purchased from ATCC. HT29 cells were adherently cultured in a […] culture dish, and the culture conditions were 1640 media containing 10% fetal bovine serum, and the cells were cultured at 37° C. in an incubator containing 5% CO2. When cells were in exponential growth phase, cells were digested with trypsin, harvested, counted, and inoculated.
After adapting to the laboratory environment for 2-5 days, BALB/c Nude mice were subcutaneously inoculated with HT29 cells in the right rib, with an inoculation amount of 5×10^6 cells/mouse and an inoculation volume of 0.2 ml (containing 50% Matrigel). The experiment was carried out when the tumor grew to about 200-300 mm^3.
The tumor tissue pieces were sheared into small size on ice, weighed and transferred to a grinding tube. The tissue homogenate was prepared by grinding them with normal saline solution at 1:5 (w/v); tissue homogenate supernatant was prepared by centrifugation for 10 min at 2˜8° C. and 1800× g, and then stored at −15˜−25° C. for use. Before use, it was taken out and left at 15-25° C., naturally warmed to room temperature, and then used.
For the analysis method of A1.9, refer to Example 6.9. […]

PC-9 = assay: Assay II of bioactive molecules on cell viability in vitro (CCK8); assay type: cell-based; conditions: Homo sapiens, CCK8, 3-4 days
Procedure: (§1) Tumor cells NUCG-4, PC-9, HT29, NCI-H358, KYSE520, A431 and A549 were first cultured; the bioactive molecules or fragments of the present disclosure were co-cultured with tumor cells, and then CCK8 reagent (Dojindo Laboratories (Shanghai), Cat: CK04, Lot: JJ744) was added, and the activity of dehydrogenase in mitochondria was detected by reading (detection wavelength 450 nm) on a microplate reader (manufacturer: Molecular Devices, model: SpectraMax M2), to evaluate the inhibitory effect of bioactive molecules on cell proliferation.
(§2) In vitro cell viability assay method: the tumor cells were digested by conventional methods using trypsin, and cells in tube were collected and counted, and then resuspended in the corresponding assay media (containing 2% FBS), which was added to a 96-well plate at 5000-10000 cells/well. Bioactive molecules were diluted with DMSO, and then 100 μL was added to a 96-well plate, the initial concentration was 10 μM, followed by 3-fold serial dilution (12 concentration gradients). The plate was incubated for 3-4 days at 37° C. under 5% CO2. Then, 20 μL of CCK8 reagent was added to each well, and the reaction was carried out for 2-6 h. The plate was read on a microplate reader (detection wavelength was 450 nm).

A549 = assay: as above; assay type: cell-based; conditions: Homo sapiens, CCK8, 3-4 days
Procedure: as §1, §2

A431 = assay: as above; assay type: cell-based; conditions: Homo sapiens, A-431; CCK8, 3-4 days
Procedure: as §1, §2

KYSE520 = assay: as above; assay type: cell-based; conditions: Homo sapiens, KYSE-520; CCK8, 3-4 days
Procedure: as §1, §2

NUCG-4 = assay: as above; assay type: cell-based; conditions: CCK8, 3-4 days
Procedure: as §1, §2

NCI-H358 = assay: as above; assay type: cell-based; conditions: Homo sapiens, CCK8, 3-4 days
Procedure: as §1, §2

## CC[C@@]1(O)C(=O)OCc2c1cc1n(c2=O)Cc2c-1nc1cc3c(cc1c2CCCO)OCO3 [Example A1.9, (S)-7-ethyl-7-hydroxy-14-(3-hydroxypropyl)-10,13-dihydro-11H-[1,3]dioxolo[4,5-g]pyrano[3′,4′:6,7]indolizino[1,2-b]quinolin-8,11(7H)-dione]
[1]; day 0
  Release ratio (%): 0.14%
[1]; day 0.17
  Release ratio (%): 0.10%
[1]; day 1
  Release ratio (%): 0.11%
[1]; day 2
  Release ratio (%): 0.16%
[1]; day 3
  Release ratio (%): 0.14%
[1]; day 7
  Release ratio (%): 0.19%
[1]; day 10
  Release ratio (%): 0.24%
[1]; day 14
  Release ratio (%): 0.35%
[1]; day 17
  Release ratio (%): 0.40%
[1]; day 21
  Release ratio (%): 0.46%
[1]; day 28
  Release ratio (%): 0.82%
[2]
  Kp: ≤ 18
PC-9
  EC50: 2.06 nM
A549
  EC50: 65.9 nM
A431
  EC50: 5.71 nM
KYSE520
  EC50: 49.6 nM
NUCG-4
  EC50: 8.73 nM
NCI-H358
  EC50: 46.2 nM
